# From the supplement of paper PMC10331698
# ± gives the standard deviation of the averaged measurements.
# How the values were obtained:
# Assay in all cases: level (log10 ratio to DMSO vehicle control); higher = higher biomarker level / cell amount than vehicle control
# [1] = compound: FC(F)(F)COC(OCC(F)(F)F)OCC(F)(F)F [tris(Trifluoroethoxy)methane]; conditions: in DMSO
# Method: (§1)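 BioMAP Diversity Plus panel of 12 human primary cell co-culture systems (3C, 4H, LPS, SAg, BT, BF4T, BE3C, CASM3C, HDF3CGF, KF3CT, MyoF, Mphg). Compounds were added 1 h before stimulation and left for 24 h (MyoF 48 h; BT 72 h for soluble read-outs or 6 d for IgG). Biomarkers were read by ELISA, cytotoxicity by SRB, PBMC viability and proliferation by Alamar Blue. Each well value was divided by the mean of 8 DMSO control wells on the same plate and log10 transformed; duplicate blinded samples were tested at 4 concentrations.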
# [2] = compound: C=C(C)C(=O)OCC(F)(F)C(F)(F)C(F)(F)F [2,2,3,3,4,4,4-Heptafluorobutyl methacrylate]; conditions: in DMSO
# Method: as §1
# [3] = compound: C=CC(=O)OCC(F)(F)C(F)(F)C(F)(F)C(F)(F)C(F)(F)C(F)(F)C(F)(F)C(F)F [1H,1H,9H-Perfluorononyl acrylate]; conditions: in DMSO
# Method: as §1
# [4] = compound: O=P(O)(O)CCC(F)(F)C(F)(F)C(F)(F)C(F)(F)C(F)(F)C(F)(F)F [2-(Perfluorohexyl)ethylphosphonic acid]; conditions: in DMSO
# Method: as §1
# [5] = compound: O=C(O)C(F)(F)C(F)(F)C(=O)O [Tetrafluorosuccinic acid]; conditions: in DMSO
# Method: as §1
# [6] = compound: FC(F)(I)C(F)(F)C(F)(F)C(F)(F)C(F)(F)C(F)(F)I [1,6-Diiodoperfluorohexane]; conditions: 6700 nM; in DMSO
# Method: as §1
# [7] = compound: OCCC(F)(F)C(F)(F)C(F)(F)C(F)(F)C(F)(F)C(F)(F)C(F)(F)C(F)(F)F [8:2 Fluorotelomer alcohol]; conditions: 6700 nM; in DMSO
# Method: as §1
# [8] = compound: OCCCC(F)(F)C(F)(F)C(F)(F)C(F)(F)C(F)(F)C(F)(F)C(F)(F)C(F)(F)F [3-(Perfluorooctyl)propanol]; conditions: 6700 nM; in DMSO
# Method: as §1
Test System,level (log10) ([1]; 6700 nM),level (log10) ([1]; 20000 nM),level (log10) ([1]; 60000 nM),level (log10) ([2]; 6700 nM),level (log10) ([2]; 20000 nM),level (log10) ([2]; 60000 nM),level (log10) ([3]; 6700 nM),level (log10) ([3]; 20000 nM),level (log10) ([3]; 60000 nM),level (log10) ([4]; 6700 nM),level (log10) ([4]; 20000 nM),level (log10) ([4]; 60000 nM),level (log10) ([5]; 6700 nM),level (log10) ([5]; 20000 nM),level (log10) ([5]; 60000 nM),level (log10) [6],level (log10) [7],level (log10) [8]
KF3CT:CD54/ICAM-1,-0.015,-0.021 ± 0.0014,-0.006 ± 0.023,0.0015 ± 0.016,-0.003 ± 0.016,0.0085 ± 0.005,-0.0185 ± 0.005,-0.0245 ± 0.0078,-0.048 ± 0.0085,-0.0015 ± 0.011,0.006 ± 0.028,0.02 ± 0.02,0.011 ± 0.0085,0.003,0.025 ± 0.0042,-0.038,-0.0195 ± 0.0021,-0.062 ± 0.024
KF3CT:CXCL8/IL-8,0.002 ± 0.011,0.007 ± 0.013,0.012 ± 0.0014,-0.0045 ± 0.023,-0.0035 ± 0.015,-0.0035 ± 0.013,-0.0015 ± 0.0092,0.016 ± 0.0028,0.012 ± 0.033,-0.021 ± 0.0071,0.002 ± 0.0014,0.0355 ± 0.0035,-0.029 ± 0.011,-0.031 ± 0.0042,-0.0175 ± 0.026,-0.071,0.0035 ± 0.0035,0.003 ± 0.0057
KF3CT:CXCL9/MIG,0.0215 ± 0.032,0.006 ± 0.027,0.0175 ± 0.015,0.009,0 ± 0.0042,0.0005 ± 0.011,-0.0145 ± 0.0035,-0.007 ± 0.017,-0.019 ± 0.0057,0.0055 ± 0.0021,-0.001 ± 0.0099,0.006 ± 0.0071,-0.011 ± 0.014,-0.011 ± 0.0099,-0.017 ± 0.0014,-0.088,0.0045 ± 0.0078,-0.018 ± 0.0057
KF3CT:CXCL10/IP-10,0.005 ± 0.0042,-0.0045 ± 0.0064,-0.0025 ± 0.005,0.0055 ± 0.00071,-0.001 ± 0.0057,0.0085 ± 0.005,-0.003 ± 0.024,-0.01 ± 0.017,-0.015 ± 0.0099,-0.009 ± 0.0057,0.0035 ± 0.0078,0.0045 ± 0.005,-0.006 ± 0.0028,-0.0055 ± 0.0064,-0.0075 ± 0.00071,-0.005,-0.0355 ± 0.018,-0.053 ± 0.02
KF3CT:IL-1alpha,-0.0045 ± 0.0078,-0.0055 ± 0.0092,0.0055 ± 0.019,-0.005 ± 0.0071,-0.007 ± 0.014,-0.0005 ± 0.016,0.021 ± 0.0042,0.023 ± 0.031,0.018 ± 0.0085,0.0005 ± 0.0078,0.0225 ± 0.00071,0.0455 ± 0.012,-0.012 ± 0.0042,-0.0385 ± 0.019,0.007 ± 0.023,-0.073,-0.0545 ± 0.029,-0.0985 ± 0.012
KF3CT:MMP-9,-0.0015 ± 0.016,-0.0105 ± 0.00071,0.004 ± 0.013,-0.029,-0.0115 ± 0.00071,0.0085 ± 0.0092,-0.013 ± 0.014,-0.0085 ± 0.0035,-0.0285 ± 0.04,-0.0305 ± 0.012,-0.024 ± 0.0071,-0.0565 ± 0.026,-0.0305 ± 0.018,-0.024 ± 0.031,-0.0085 ± 0.035,-0.136,-0.09 ± 0.027,-0.053 ± 0.0085
KF3CT:PAI-I,-0.0035 ± 0.0035,-0.006 ± 0.0014,0.0025 ± 0.0092,0.005 ± 0.0099,0.008 ± 0.0014,0.014,-0.017,-0.023 ± 0.042,-0.0465 ± 0.022,-0.033 ± 0.037,-0.0505 ± 0.028,-0.039 ± 0.025,-0.0465 ± 0.037,-0.0005 ± 0.0021,0 ± 0.0014,-0.117,-0.0255 ± 0.018,-0.104 ± 0.077
KF3CT:SRB,-0.0125 ± 0.00071,-0.0015 ± 0.0035,-0.0035 ± 0.012,0.0025 ± 0.0021,0.0045 ± 0.011,-0.0075 ± 0.00071,0.003 ± 0.0014,-0.002 ± 0.0085,0.0045 ± 0.018,-0.0015 ± 0.0035,-0.011 ± 0.0028,-0.007 ± 0.013,-0.012,-0.0005 ± 0.0078,0.001 ± 0.0042,-0.288,0.0075 ± 0.0064,-0.053
KF3CT:TIMP-2,-0.0025 ± 0.021,-0.007 ± 0.011,-0.0045 ± 0.012,-0.004 ± 0.016,-0.0165 ± 0.00071,-0.0035 ± 0.012,-0.0125 ± 0.046,-0.022 ± 0.0085,-0.042 ± 0.011,-0.0075 ± 0.012,0.011,0.013 ± 0.017,0 ± 0.0071,0.0365 ± 0.005,0.027 ± 0.024,-0.022,-0.0175 ± 0.026,-0.0255 ± 0.063
KF3CT:uPA,-0.0005 ± 0.043,-0.011 ± 0.018,-0.014 ± 0.023,-0.0035 ± 0.011,-0.008 ± 0.021,-0.003 ± 0.0042,-0.0285 ± 0.012,-0.005 ± 0.025,-0.0395 ± 0.013,0.007 ± 0.0057,0.013 ± 0.011,0.015 ± 0.02,-0.012 ± 0.0071,0.0025 ± 0.0064,-0.0285 ± 0.00071,-0.002,0.0155 ± 0.0078,-0.0045 ± 0.025
MyoF:CD106/VCAM-1,-0.021 ± 0.034,-0.03 ± 0.028,-0.034 ± 0.0057,0.0045 ± 0.019,-0.006 ± 0.0057,0.0035 ± 0.025,-0.0025 ± 0.0035,-0.032 ± 0.0071,-0.163 ± 0.0057,0.0025 ± 0.011,0.01 ± 0.0014,-0.001,-0.0095 ± 0.016,0.0005 ± 0.019,-0.015 ± 0.0085,-0.373,-0.026 ± 0.016,-0.078 ± 0.044
MyoF:CXCL8/IL-8,-0.0155 ± 0.035,-0.0125 ± 0.0078,0.0195 ± 0.015,-0.0125 ± 0.033,-0.017 ± 0.024,-0.014 ± 0.041,-0.024 ± 0.031,-0.006 ± 0.03,0.0205 ± 0.013,-0.013 ± 0.013,0.018 ± 0.018,0.0795 ± 0.018,-0.013 ± 0.0099,-0.019 ± 0.014,0.006 ± 0.025,0.153,0.023 ± 0.0014,-0.0505 ± 0.033
MyoF:Collagen I,-0.006 ± 0.0085,-0.013 ± 0.017,-0.01 ± 0.0014,0.0055 ± 0.013,0.001 ± 0.021,0.018 ± 0.027,0.0005 ± 0.023,0.0025 ± 0.00071,-0.033 ± 0.028,-0.0025 ± 0.005,-0.0045 ± 0.0021,0.0085 ± 0.011,0.0045 ± 0.0021,0.007 ± 0.0014,0.0005 ± 0.012,-0.444,-0.0025 ± 0.021,-0.046 ± 0.024
MyoF:Collagen III,0.0035 ± 0.0035,-0.0005 ± 0.019,0.009 ± 0.0042,0.0075 ± 0.0021,0 ± 0.0014,0.0085 ± 0.0078,0.0015 ± 0.005,-0.029 ± 0.011,-0.102 ± 0.0014,0.003 ± 0.0042,0.009 ± 0.0014,-0.009 ± 0.031,-0.013 ± 0.016,-0.0205 ± 0.005,-0.016 ± 0.0099,-0.527,-0.0205 ± 0.021,-0.0205 ± 0.00071
MyoF:Collagen IV,-0.026 ± 0.0042,-0.027 ± 0.02,-0.0075 ± 0.03,-0.0185 ± 0.019,0.004 ± 0.065,0.014 ± 0.075,0.02 ± 0.0014,0.015 ± 0.024,0.0035 ± 0.021,-0.038 ± 0.0071,-0.019 ± 0.03,-0.0405 ± 0.0021,0.008,0.003 ± 0.0099,0.0115 ± 0.015,0.063,0.0065 ± 0.0021,-0.0385 ± 0.029
MyoF:Decorin,0.017 ± 0.025,0.0235 ± 0.013,0.0245 ± 0.021,0.018 ± 0.014,0.0075 ± 0.005,0.022 ± 0.0014,-0.014 ± 0.024,-0.0655 ± 0.0021,-0.065 ± 0.052,-0.0035 ± 0.023,0.0075 ± 0.0021,0.0385 ± 0.00071,-0.0055 ± 0.0021,-0.006 ± 0.0057,0.014 ± 0.027,0.021,-0.0195 ± 0.019,0.0395 ± 0.033
